Each structure is given as a SMILES string. Like-named read-outs stand apart in the source and are kept apart here.

The values below come from patent US12257248B2, “Bronchodilators for treating obstructive lung disease” (University of South Florida, priority 2020, dated 2025).

In experiment [1] the test system is D9-HASM cells. As to the kind of experiment: [Ca2+]i stimulation screening assay (Fluo-4) in D9-HASM cells. The class given is cell-based, human. The note with it: for EC50: Fluo-4, mean±SE from 4-8 experiments, read-out: EC50 ([Ca^2+]i stimulation); for Emax / Rmax (% ionomycin): maximal [Ca2+]i response normalized to ionomycin 2.0 μM; for Emax: read-out: Rmax (% ionomycin). On the procedure:
Cultured D9 telomerase reverse transcriptase immortalized HASM (D9-HASM) cells were utilized for the [Ca^2+]i screening assays. Cells were seeded onto 96 well plates and loaded with Fluo-4 direct. The [Ca^2+]i responses to multiple concentrations of potential agonists were determined as a measure of receptor activation. Control cells were exposed to the non-specific ionophore ionomycin at 2.0 μM (a maximal effective concentration, FIG. 4). Results from TAS2R agonist studies were normalized to the ionomycin response in order to compare the maximal responses (Rmax) between agonists. The concentration-response data were fit to a four component logistic regression model (sigmoid curve) using iterative non-linear regression methods to determine the EC50 and Rmax. The structures of the previously identified agonist termed T5-1, and 18 derivatives (denoted as T5-2 through T5-19) are shown in FIG. 2. Representative [Ca^2+]i responses to these compounds are shown in FIG. 4, and mean results from multiple concentration-response experiments are shown in FIG. 3. Table 1 summarizes the results in terms of potency (EC50) and efficacy (Rmax), with statistical comparisons to T5-1.

The test system of experiment [2] is primary HASM cells. As to the kind of experiment: HASM cell relaxation by magnetic twisting cytometry (MTC). It counts as cell-based, human. Conditions: for Relaxation (% basal): primary HASM cells passages 5-7, non-asthmatic donor, MTC, single concentration 500 μM; for rank of HASM cell relaxation response (FIG. 7): 500 μM, added at 60 seconds, 200-400 cells per compound. As for the experimental part:
FIG. 7 depicts HASM cell relaxation responses to selected compounds. Compounds were studied at a concentration of 500 μM and were added to the culture media at the 60 second time point (arrow). Results are from measurements of 200-400 cells per compound. *, P<0.01 vs the T5-1 reference response.
To correlate the [Ca^2+]i responses of the compounds to relevant physiologic function, we turned to measurements of single-cell mechanics in HASM cells using magnetic twisting cytometry (MTC) as previously described. Here, cultured primary HASM cells at passages 5-7 derived from a non-asthmatic donor lung were utilized. […] Positive controls (FIG. 6) included the β-agonists albuterol (partial agonist), formoterol (full agonist) and forskolin, which increases cAMP by direct activation of adenylyl cyclase.

With `c1cnc2c(c1)ccc1cccnc12` [T5-1, 1,10-Phenanthroline, reference compound], in experiment [1] (Homo sapiens), the EC50 turned out to be 29.7 ± 5.57 µM and the Emax is 149 ± 10.2%. The “Relaxation (% basal)” value in experiment [2] was determined as 10.8 ± 2.17 % basal.

As to `c1ccc(-c2ccccn2)nc1` [T5-2, 2,2′-Bipyridine], the Emax in experiment [1] (Homo sapiens) is 16.4 ± 4.48%. Moreover, the “Relaxation (% basal)” value in experiment [2] is recorded as −3.2 ± 1.67 % basal.

Consider `c1cnc2c(c1)ccc1ncccc12` [T5-3, 1,7-Phenanthroline], for which, in experiment [1] (Homo sapiens), the EC50 came to 24.9 ± 4.58 µM and the Emax was 121 ± 16.7%. For the same compound, in experiment [2], the “Relaxation (% basal)” value is given as 34.8 ± 1.36 % basal.

`c1cnc2ccc3ncccc3c2c1` [T5-4, 4,7-Phenanthroline]: in experiment [1] (Homo sapiens), the Emax is 15.4 ± 3.37%. Moreover, the “Relaxation (% basal)” value in experiment [2] amounted to 15.3 ± 1.48 % basal.

Turning to `Cc1ccc2ccc3ccc(C)nc3c2n1` [T5-5, 2,9-Dimethyl-1,10-phenanthroline], in experiment [1] (Homo sapiens), the EC50 was found to be 33.3 ± 6.4 µM and the Emax was found to be 143 ± 13.1%. Also, the “Relaxation (% basal)” value in experiment [2] is listed as 12.0 ± 1.47 % basal.

In the case of `Cc1ccnc2c1ccc1c(C)ccnc12` [T5-6, 4,7-Dimethyl-1,10-phenanthroline], in experiment [1] (Homo sapiens), the EC50 is 1.39 ± 0.19 µM and the Emax was 147 ± 16.7%. Further, in experiment [2], the “Relaxation (% basal)” value was found to be 5.3 ± 1.95 % basal.

Consider `Cc1c(C)c2cccnc2c2ncccc12` [T5-7, 5,6-Dimethyl-1,10-phenanthroline], for which, in experiment [1] (Homo sapiens), the EC50 amounted to 2.05 ± 0.2 µM and the Emax is 163 ± 36.4%. Moreover, the “Relaxation (% basal)” value in experiment [2] amounted to 9.0 ± 2.19 % basal.

As for `O=C1C(=O)c2cccnc2-c2ncccc21` [T5-8, 1,10-Phenanthroline-5,6-dione], in experiment [1] (Homo sapiens), the 50% effective concentration (EC50) was determined as 0.12 ± 0.05 µM and the Emax is 199 ± 20.2%. In experiment [2], the “rank of HASM cell relaxation response (FIG. 7)” value (“rank” below) is on record as “greatest degree of relaxation” and the “Relaxation (% basal)” value came out at 50.2 ± 2.79 % basal.

As for `Nc1cc2cccnc2c2ncccc12` [T5-9, 1,10-Phenanthrolin-5-amine], in experiment [1] (Homo sapiens), the EC50 is 4.6 ± 0.42 µM and the Emax stood at 176 ± 14.2%. In experiment [2], the “Relaxation (% basal)” value came out at 7.2 ± 1.95 % basal.

As to `Brc1cc2cccnc2c2ncccc12` [T5-10, 5-Bromo-1,10-phenanthroline], in experiment [1] (Homo sapiens), the EC50 was 4.35 ± 0.71 µM and the Emax was determined as 182 ± 25.7%. Further, the “Relaxation (% basal)” value in experiment [2] is recorded as 14.4 ± 1.93 % basal.

`Clc1cc2cccnc2c2ncccc12` [T5-11, 5-Chrolo-1,10-phenanthroline]: in experiment [1], the EC50 is 11.1 ± 2 µM and the “Rmax (% ionomycin)” value is listed as 183 ± 7.3 % ionomycin. In addition, in experiment [2], the “rank” value is “then 18 and 11”; the “Relaxation (% basal)” value was found to be 18.0 ± 2.13 % basal.

For the compound `Cc1cc2cccnc2c2ncccc12` [T5-12, 5-Methyl-1,10-phenanthroline], in experiment [1] (Homo sapiens), the EC50 is 12.1 ± 1.99 µM and the Emax came out at 181 ± 24.6%.

Turning to `O=[N+]([O-])c1cc2cccnc2c2ncccc12` [T5-13, 5-Nitro-1,10-phenanthroline], in experiment [1] (Homo sapiens), the EC50 turned out to be 36 ± 3.85 µM and the Emax was 134 ± 11.9%. Further, the “Relaxation (% basal)” value in experiment [2] is on record as 12.8 ± 2.00 % basal.

As for `c1cnc2c(c1)c1nccnc1c1cccnc12` [T5-14, Pyrazino[2,3-f][1,10]phenanthroline], in experiment [1] (Homo sapiens), the EC50 was 147 ± 2.26 µM and the Emax worked out at 34.5 ± 15.1%. The “Relaxation (% basal)” value in experiment [2] was found to be 6.1 ± 1.67 % basal.

Regarding `COc1c(OC)c2cccnc2c2ncccc12` [T5-15, 5,6-Dimethoxy-1,10-phenanthroline], in experiment [1] (Homo sapiens), the 50% effective concentration (EC50) came out at 7.48 ± 0.78 µM and the Emax stood at 127 ± 16.1%. For the same compound, in experiment [2], the “rank” value was “then 15” and the “Relaxation (% basal)” value was found to be 26.7 ± 1.65 % basal.

For `CCc1c(CC)c2cccnc2c2ncccc12` [T5-16, 5,6-Diethyl-1,10-phenanthroline], in experiment [1] (Homo sapiens), the EC50 came out at 4.05 ± 0.8 µM and the Emax is 183 ± 14.7%.

Consider `C=C(C)c1c(C(=C)C)c2cccnc2c2ncccc12` [T5-17, 5,6-di(prop-1-en-2yl)-1,10-phenanthroline], for which, in experiment [1] (Homo sapiens), the EC50 stood at 25.5 ± 7.06 µM and the Emax turned out to be 113 ± 19%. For the same compound, the “Relaxation (% basal)” value in experiment [2] is 13.5 ± 2.59 % basal.

With `O=C1C(=O)c2ccccc2-c2ccccc21` [T5-18, 9,10-Phenanthrenequinone], in experiment [1] (Homo sapiens), the EC50 was determined as 5.08 ± 1.37 µM and the Emax was determined as 153 ± 5.2%. Besides, in experiment [2], the “rank” value is “then 18 and 11”; the “Relaxation (% basal)” value worked out at 20.0 ± 2.00 % basal.

As for `Cc1ccnc(-c2cc(C)ccn2)c1` [T5-19, 4,4′-Dimethyl-2,2′-dipyridyl], in experiment [1], the half-maximal effective concentration (EC50) turned out to be 60.6 ± 9.13 µM and the “Rmax (% ionomycin)” value is reported as 58.9 ± 2.95 % ionomycin.

Broadly, the EC50 is the concentration at which the effect is half-maximal.
